In assay [1] the test system is p16^INK4A, p21^CIP1 and SMP30. Nature of the assay: Western blot of senescence-associated marker proteins in HNDFs. Format: cell-based, human. As to the method:
In addition, in FIG. 2C, HNDFs are incubated with ANA (10 μM), ANH (10 μM) and ANM (10 μM) in the presence of HG (30 mM) for 72 h. Senescence-associated marker proteins such as p16^INK4A, p21^CIP1 and SMP30 are determined by western blot analysis.
In order to assess the cellular and molecular basis of the ANM-mediated inhibition of senescence, the expression levels of senescence-associated marker proteins including, p16^INK4A and p21^CIP1 are examined. In FIG. 4D, to determine the effect of ANM on senescence-associated protein expression, HNDFs are incubated with ANM (10 μM) or NAC (100 μM) in the presence or absence of HG (30 mM) for 72 h. Immunoblotting analysis is used to determine the protein levels with corresponding specific antibodies.
(§1) Cells are lysed by either RIPA lysis buffer or nuclear and cytoplasmic extraction reagents (Thermo Fisher Scientific). Protein concentrations are determined by Bio-Rad protein assay reagent (Bio-Rad Laboratories, Hercules, Calif.). Equal amounts of protein samples (60 μg) are separated by 7-12% SDS-PAGE and the separated proteins are transferred onto polyvinylidene […] (PVDC) membrane overnight. The transferred protein membranes are blocked with 5% non-fat dried milk for 30 min, followed by incubation with specific primary antibodies overnight, and either horseradish peroxidase-conjugated goat anti-rabbit or anti-mouse antibodies for 2 h. The blots are detected using VL Chemi-Smart 3000 (Viogene Biotek, Sunnyvale, Calif.) with the enhanced chemiluminescence (ECL) western blotting reagent (Millipore, Billerica, Mass.).
(A western blot detects proteins with antibodies after separation by electrophoresis.)

A further assay has as its system HO-1 and NQO-1. The assay can be described thus: Q-PCR of HO-1 and NQO-1 mRNA in HNDFs. Format: cell-based, human. As to conditions: 12 h. Here is the method: Therefore, it is hypothesized that ANM may upregulate anti-oxidant genes, which may suppress HG-induced ROS generation in HNDFs. In FIG. 5B and FIG. 5C, to quantify the mRNA expression levels of HO-1 and NQO-1, HNDFs are incubated with ANM (10 μM) or NAC (100 μM) in the presence or absence of HG (30 mM) for 12 h. Total RNA is extracted and subjected to Q-PCR analysis. Relative mRNA levels are normalized with β-actin mRNA. […] In contrast, as compared with the NG treatment group, […] expression levels of HO-1 and NQO-1 are observed in the HG treatment group.
As shown in the figures, to confirm a hypothesis that ANM protects HNDFs from HG-induced oxidative stress, an Nrf2 gene knockdown system using Nrf2 siRNA is developed. In FIG. 6A, HNDFs are transfected with specific siRNA against Nrf2 or control siRNA. After transfection for 24 h, cells are incubated with ANM (10 μM) in the presence of HG for 12 h. Total RNA is extracted and subjected to Q-PCR analysis to determine HO-1 and NQO-1 mRNA expression levels. […] From the data, it can be concluded that Nrf2 plays a vital role in HO-1 and NQO-1 induction even at the basal level.
Total RNA is extracted from cultured HNDFs using Trizol Reagent (Thermo Fisher Scientific). Q-PCR analysis is performed using Applied Biosystems detection instruments and software. Forward and reverse primers (10 μM), and the working solution SYBR green, is used as a PCR master mix, under the following conditions: 96° C. for 3 minutes followed by 40 cycles at 96° C. for 1 minute, 50° C. for 30 seconds and 72° C. for 90 seconds. GAPDH is used as an internal standard to control for variability in amplification because of differences in starting mRNA concentrations. The copy number of each transcript is calculated as the relative copy number normalized by GAPDH copy number.

A further assay concerns wild-type N2 C. elegans. Nature of the assay: C. elegans oxidative stress-resistance assay (Juglone). Format: in vivo, Caenorhabditis elegans. As to conditions: pretreatment 10 μM, 3 days; 250 μM Juglone 2.5, 3.5 and 4.5 h. As to the method: Please refer to FIG. 8A˜FIG. 8C, which are views showing the life span of wild-type C. elegans extended by ANM from oxidative stress. As shown in the figures, to further confirm the anti-oxidative property of ANM in vivo, C. elegans model is subjected. Wild-type N2 worms are pretreated with ANM for 3 days followed by exposure to oxidative stress. In FIG. 8A, to determine oxidative stress resistance, age synchronized wild-type L1 larvae are pretreated with ANM (10 and 20 μM) or DMSO (0.01%) for 3 days. Oxidative stress is induced by incubation of pre-treated worms with 250 μM Juglone for 2.5, 3.5 and 4.5 h and then scored for viability. Results are expressed as mean±S.E.M of three independent experiments. Statistical significance is ser at *P<0.05 as compared to control vs. sample treatment.
Age synchronized L1 larvae are incubated with liquid S-basal medium containing E. coli OP50 at a density of 1×10^9 cells. MI and 10 and 20 μM ANM or 0.01% DMSO (vehicle control) for 3 days. Subsequently, adult worms are subjected to oxidative stress assay. To induce oxidative stress, worms are incubated with Juglone (5-hydroxyl-1,4-naphthoquinone; Sigma), an ROS-generating agent. ANM treated and control worms are transferred to S-basal medium containing 250 μM Juglone, and incubated from 2.5, 3.5 and 4.5 h. After treatment, viable worms are scored. […] The test is performed triplicate.

The subject of the next assay is SIRT-1. The assay can be described thus: Immunoblotting of SIRT-1 and phos-SIRT-1 in HUVECs. Format: cell-based, human. As to conditions: ANM or RES + HG. Here is the method: To determine whether ANM regulates HUVEC senescence through a SIRT-1-mediated pathway, protein expression levels of SIRT-1 are examined. In FIG. 9E, protein expression levels of SIRT-1 and phos-SIRT-1 are monitored by immunoblotting.
as §1

The results in this text go back to patent US20180318199A1, “Pharmaceutical Composition Having Anti-Aging Properties against High-Glucose” (TAIWAN LEADER BIOTECH CORP., priority 2017, published 2018).

SMILES strings stand for the structures. Entries after “also recorded” stand apart in the source; their conditions may differ.

Take `C=C(CCC(C)C1CCC2C3=C(C(=O)C(O)C21C)C1(C)CCC(O)C(C)C1CC3)C(C)C(=O)O` (stereo not shown) [ANM, antcin M]: in assay [1] (10 μM + HG 30 mM, 72 h), the “SMP30 protein under HG (western blot)” value was “significantly upregulated”. The “HG-induced p16^INK4A and p21^CIP1 protein expression” value in assay [1] (10 μM + HG 30 mM, 72 h, western blot) is given as “significantly downregulated; also recorded: significantly attenuates”. The “basal level of p21^CIP1 expression” value in assay [1] (ANM alone, no HG) was “significantly reduces”. For the same molecule, in the assay with HO-1 and NQO-1 (ANM 10 μM + HG 30 mM), the “HO-1 and NQO-1 mRNA levels in HG treated groups” value is “further increased”. In addition, the “HO-1 and NQO-1 expression, siNrf2-transfected cells” value with HO-1 and NQO-1 (ANM 10 μM + HG) is “decrease”. Moreover, in the assay on HO-1 and NQO-1 (ANM 10 μM + HG, scrambled siRNA), the “HO-1 and NQO-1 mRNA levels, control siRNA cells” value was “remarkable increase”. Besides, the “HO-1 and NQO-1 mRNA levels, compound alone” value with HO-1 and NQO-1 (ANM 10 μM, no HG) is recorded as “significantly increases”. In addition, the “survival rate of worms exposed to Juglone-induced oxidative stress” value in the assay on wild-type N2 C. elegans is listed as “significantly increases”. Besides, in the assay with SIRT-1, the “HG-induced SIRT-1 phosphorylation at Ser47 in HUVECs” value is on record as “significantly blocks” and the “SIRT-1 expression in HUVECs under HG” value is reported as “significantly rescues”.
